Test results reported in patent US9868748B2, “Thiazolopyrrolidine inhibitors of ROR- γ” (Vitae Pharmaceuticals, Inc., priority 2013, dated 2018).

Legend:
[1] = target: full-length RORγt in Jurkat cells (Homo sapiens (Human), UniProt P51449); test: RORγt 5xRORE Assay in Jurkat Cells (Assay 2); assay type: cell-based; conditions: Nanoluc luciferase reporter, 16-18 hrs, Table 9, read-out: RORγt5X IC50 Range*
Method in brief: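 Jurkat cells co-transfected with full-length RORγt expression plasmid and a 5×RORE-driven secreted Nanoluc reporter, then plated at 80,000 cells/well in phenol-red-free RPMI with 10% delipidated FBS. Compounds added at 0.1% DMSO for 16–18 h at 37 °C; supernatant luciferase read for inverse agonism.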

[2] = target: recombinant RORγ Ligand Binding Domain (LBD) protein (Homo sapiens (Human), UniProt P51449); test: Radio-Ligand RORγ Binding Assay (Assay 1); conditions: competition with 25-hydroxy [26,27-3H]-cholesterol, SPA; Table 9; read-out: RORγ Binding Ki Range*
Method in brief: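 Scintillation proximity competition binding of 8.6 nM stock 25-hydroxy[26,27-3H]cholesterol to 24 nM stock 6×His-GST-tagged human RORγ LBD, in 50 mM HEPES pH 7.4 with NaCl, MgCl2, glycerol, CHAPS, β-octylglucopyranoside and DTT, room temperature. Inhibition referenced to DMSO and 10 μM T0901317; IC50 by four-parameter fit, converted to Ki using radioligand concentration and KD.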

Chain of full-length RORγt in Jurkat cells (P51449 other isoform, or with tags, fused parts or gaps): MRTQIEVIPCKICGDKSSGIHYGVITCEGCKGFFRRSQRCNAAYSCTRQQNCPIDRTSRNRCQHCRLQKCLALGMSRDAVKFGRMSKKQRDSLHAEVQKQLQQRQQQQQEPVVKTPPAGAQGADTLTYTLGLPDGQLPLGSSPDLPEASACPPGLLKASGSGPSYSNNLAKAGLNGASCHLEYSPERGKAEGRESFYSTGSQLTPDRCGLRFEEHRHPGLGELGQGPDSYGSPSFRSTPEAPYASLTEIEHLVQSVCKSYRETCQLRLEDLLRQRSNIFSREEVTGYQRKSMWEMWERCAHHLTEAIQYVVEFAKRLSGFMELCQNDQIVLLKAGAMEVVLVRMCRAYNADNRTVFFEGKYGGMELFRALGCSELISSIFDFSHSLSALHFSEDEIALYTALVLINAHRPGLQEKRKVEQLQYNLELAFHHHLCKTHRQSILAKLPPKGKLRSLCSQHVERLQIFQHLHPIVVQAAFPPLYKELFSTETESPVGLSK
Chain of recombinant RORγ Ligand Binding Domain (LBD) protein (P51449 269-508): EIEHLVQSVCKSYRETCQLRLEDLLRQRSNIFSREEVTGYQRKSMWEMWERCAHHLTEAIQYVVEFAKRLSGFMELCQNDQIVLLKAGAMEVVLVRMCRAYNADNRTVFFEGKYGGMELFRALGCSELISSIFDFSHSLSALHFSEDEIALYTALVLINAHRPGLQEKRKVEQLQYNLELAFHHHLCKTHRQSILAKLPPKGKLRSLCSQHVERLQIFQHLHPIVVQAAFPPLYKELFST

CCS(=O)(=O)c1ccc(CC(=O)Nc2nc3c(s2)CN(CCc2ccc(Cl)cc2)[C@H]3C(C)C)cc1
IC50 [1]: > 1000 nM
Ki [2]: < 100 nM

CCS(=O)(=O)c1ccc(CC(=O)Nc2nc3c(s2)CN(Cc2ccc(=O)n(C4CC4)c2)[C@H]3C(C)C)cc1
IC50 [1]: 100 to 1000 nM
Ki [2]: < 100 nM

CCS(=O)(=O)c1ccc(CC(=O)Nc2nc3c(s2)CN(c2nc4cccnc4s2)[C@H]3C(C)C)cc1
IC50 [1]: > 1000 nM
Ki [2]: < 100 nM

CCS(=O)(=O)c1ccc(CC(=O)Nc2nc3c(s2)CN(Cc2ccc(Cl)cc2)[C@H]3C(C)C)c(C#N)c1
IC50 [1]: < 100 nM
Ki [2]: < 100 nM

CCS(=O)(=O)c1ccc(CC(=O)Nc2nc3c(s2)CN(CC2CCS(=O)(=O)CC2)[C@H]3C(C)C)cc1
IC50 [1]: > 1000 nM
Ki [2]: < 100 nM

CCS(=O)(=O)c1ccc(CC(=O)Nc2nc3c(s2)CN(Cc2ccc(Cl)cc2)[C@H]3C(C)C)c(Cl)c1
IC50 [1]: < 100 nM
Ki [2]: < 100 nM

CCS(=O)(=O)c1ccc(CNC(=O)c2nc3c(s2)CN(C[C@H]2CC[C@H](C(F)(F)F)CC2)[C@H]3C(C)C)nc1
IC50 [1]: 100 to 1000 nM
Ki [2]: 100 to 1000 nM

CCS(=O)(=O)c1ccc(CC(=O)Nc2nc3c(s2)CN(CC2CN(CC(F)(F)F)C2)[C@H]3C(C)C)cc1
IC50 [1]: 100 to 1000 nM
Ki [2]: < 100 nM

CCS(=O)(=O)c1ccc(CC(=O)Nc2nc3c(s2)CN(Cc2ccc(=O)n(C(F)F)c2)[C@H]3C(C)C)cc1
IC50 [1]: > 1000 nM
Ki [2]: < 100 nM

CCS(=O)(=O)c1ccc(CC(=O)Nc2nc3c(s2)CN(CCc2ccccc2)[C@@H]3C(C)C)cc1
IC50 [1]: > 1000 nM
Ki [2]: < 100 nM

CCS(=O)(=O)c1ccc(CC(=O)Nc2nc3c(s2)CN(Cc2cccc(Br)c2)[C@@H]3C(C)C)cc1
IC50 [1]: > 1000 nM
Ki [2]: < 100 nM

CCS(=O)(=O)c1ccc(CC(=O)Nc2nc3c(s2)CN(Cc2ccc(C(F)(F)F)cc2)[C@@H]3C(C)C)cc1
IC50 [1]: 100 to 1000 nM
Ki [2]: < 100 nM

CC(C)[C@@H]1c2nc(NC(=O)Cc3ccc(S(C)(=O)=O)cc3)sc2CN1Cc1ccc(OC(F)F)cc1
IC50 [1]: 100 to 1000 nM
Ki [2]: 100 to 1000 nM

CC(C)[C@@H]1c2nc(NC(=O)Cc3ccc(S(C)(=O)=O)cc3)sc2CN1Cc1ccc(OC(F)F)cc1F
IC50 [1]: 100 to 1000 nM
Ki [2]: 100 to 1000 nM

CCS(=O)(=O)c1ccc(CC(=O)Nc2nc3c(s2)CN(Cc2cc(OC(F)F)ccc2F)[C@@H]3C(C)C)cc1
IC50 [1]: > 1000 nM
Ki [2]: < 100 nM

CC[C@@H]1c2nc(NC(=O)Cc3ccc(S(=O)(=O)CC)cc3)sc2CN1Cc1ccccc1F
IC50 [1]: > 1000 nM
Ki [2]: < 100 nM

CCS(=O)(=O)c1ccc(CC(=O)Nc2nc3c(s2)CN(Cc2cccc(F)c2)[C@@H]3C(C)C)cc1
IC50 [1]: > 1000 nM
Ki [2]: < 100 nM

CC[C@@H]1c2nc(NC(=O)Cc3ccc(S(C)(=O)=O)cc3)sc2CN1Cc1cccc(C(F)(F)F)c1
IC50 [1]: > 1000 nM
Ki [2]: < 100 nM

CCS(=O)(=O)c1ccc(CC(=O)Nc2nc3c(s2)CN(Cc2ccccc2)[C@@H]3C(C)C)cc1
IC50 [1]: > 1000 nM
Ki [2]: < 100 nM

CCS(=O)(=O)c1ccc(CC(=O)Nc2nc3c(s2)CN(c2nccc(C4CC4)n2)[C@@H]3C(C)C)cc1
IC50 [1]: > 1000 nM
Ki [2]: < 100 nM

CCS(=O)(=O)c1ccc(CC(=O)Nc2nc3c(s2)CN(Cc2cc(OC(F)(F)F)ccc2F)[C@@H]3C(C)C)cc1
IC50 [1]: > 1000 nM
Ki [2]: < 100 nM

CCS(=O)(=O)c1ccc(CC(=O)Nc2nc3c(s2)CN(Cc2ccc(C#N)cc2)[C@@H]3C(C)C)cc1
IC50 [1]: 100 to 1000 nM
Ki [2]: 100 to 1000 nM

CCS(=O)(=O)c1ccc(CC(=O)Nc2nc3c(s2)CN(C(C)c2cccc(C(F)(F)F)c2)[C@@H]3C(C)C)cc1 (stereo partly drawn)
IC50 [1]: > 1000 nM
Ki [2]: < 100 nM

CCS(=O)(=O)c1ccc(CC(=O)Nc2nc3c(s2)CN(Cc2cccc(S(C)(=O)=O)c2)[C@@H]3C(C)C)cc1
IC50 [1]: > 1000 nM
Ki [2]: 100 to 1000 nM

CCS(=O)(=O)c1ccc(CC(=O)Nc2nc3c(s2)CN(C(C)c2ccc(F)cc2)[C@@H]3C(C)C)cc1 (stereo partly drawn)
IC50 [1]: > 1000 nM
Ki [2]: < 100 nM

CCS(=O)(=O)c1ccc(CC(=O)Nc2nc3c(s2)CN(Cc2cc(C(F)(F)F)cc(C(F)(F)F)c2)[C@@H]3C(C)C)cc1
IC50 [1]: > 1000 nM
Ki [2]: < 100 nM

CCS(=O)(=O)c1ccc(CC(=O)Nc2nc3c(s2)CN(Cc2cc(OC)cc(OC)c2)[C@@H]3C(C)C)cc1
IC50 [1]: > 1000 nM
Ki [2]: < 100 nM

CCS(=O)(=O)c1ccc(CC(=O)Nc2nc3c(s2)CN(Cc2cc(Cl)ccc2Cl)[C@@H]3C(C)C)cc1
IC50 [1]: > 1000 nM
Ki [2]: < 100 nM

CCS(=O)(=O)c1ccc(CC(=O)Nc2nc3c(s2)CN(Cc2ccc(OC(F)(F)F)cc2)[C@@H]3C(C)C)cc1
IC50 [1]: 100 to 1000 nM
Ki [2]: < 100 nM

CCS(=O)(=O)c1ccc(CC(=O)Nc2nc3c(s2)CN(Cc2ccc(C(F)(F)F)c(Cl)c2)[C@@H]3C(C)C)cc1
IC50 [1]: 100 to 1000 nM
Ki [2]: < 100 nM

CCS(=O)(=O)c1ccc(CC(=O)Nc2nc3c(s2)CN(Cc2ccc(F)cc2)[C@@H]3C(C)C)cc1
IC50 [1]: > 1000 nM
Ki [2]: < 100 nM

CCS(=O)(=O)c1ccc(CC(=O)Nc2nc3c(s2)CN(Cc2ccc(OC)cc2)[C@@H]3C(C)C)cc1
IC50 [1]: > 1000 nM
Ki [2]: < 100 nM

CCS(=O)(=O)c1ccc(CC(=O)Nc2nc3c(s2)CN(Cc2cccc(C(F)(F)F)c2)[C@@H]3C(C)C)cc1
IC50 [1]: > 1000 nM
Ki [2]: < 100 nM

Cc1cc(C(F)(F)F)nc(N2Cc3sc(NC(=O)Cc4ccc(S(C)(=O)=O)cc4)nc3[C@H]2C(C)C)n1
IC50 [1]: > 1000 nM
Ki [2]: 100 to 1000 nM

CCS(=O)(=O)c1ccc(CC(=O)Nc2nc3c(s2)CN(c2nc(C)cc(C(F)(F)F)n2)[C@@H]3C(C)C)cc1
IC50 [1]: > 1000 nM
Ki [2]: < 100 nM

CCS(=O)(=O)c1ccc(CC(=O)Nc2nc3c(s2)CN(C[C@H]2C[C@H](C#N)C2)[C@H]3C(C)C)cc1 (relative stereo)
IC50 [1]: > 1000 nM
Ki [2]: < 100 nM

CCS(=O)(=O)c1ccc(CC(=O)Nc2nc3c(s2)CN(C[C@@H]2CC[C@H](C(F)(F)F)OC2)[C@H]3C(C)C)cc1 (relative stereo)
IC50 [1]: > 1000 nM
Ki [2]: < 100 nM

CCS(=O)(=O)c1ccc(CC(=O)Nc2nc3c(s2)CN([C@H]2COc4cc(Cl)ccc42)[C@H]3C(C)C)cc1 (relative stereo)
IC50 [1]: < 100 nM
Ki [2]: < 100 nM

CCS(=O)(=O)c1ccc(CC(=O)Nc2nc3c(s2)CN(C[C@@H]2CC[C@H](C(F)(F)F)N(C)C2)[C@H]3C(C)C)cc1 (relative stereo)
IC50 [1]: > 1000 nM
Ki [2]: < 100 nM

CCS(=O)(=O)c1ccc(CC(=O)Nc2nc3c(s2)CN(C[C@H]2CC[C@@H](C(F)(F)F)N(C)C2)[C@H]3C(C)C)cc1 (relative stereo)
IC50 [1]: > 1000 nM
Ki [2]: < 100 nM

CCS(=O)(=O)c1ccc(CC(=O)Nc2nc3c(s2)CN(C[C@H]2CCCCO2)[C@H]3C(C)C)cc1 (relative stereo)
IC50 [1]: > 1000 nM
Ki [2]: < 100 nM

CCS(=O)(=O)c1ccc(CNC(=O)c2nc3c(s2)CN(C[C@H]2CC[C@@H](C(F)(F)F)CC2)[C@H]3C(C)C)cc1 (relative stereo)
IC50 [1]: > 1000 nM
Ki [2]: < 100 nM

CCS(=O)(=O)c1ccc(CC(=O)Nc2nc3c(s2)CN(C[C@@H]2CCCCO2)[C@H]3C(C)C)cc1 (relative stereo)
IC50 [1]: > 1000 nM
Ki [2]: < 100 nM

CCS(=O)(=O)c1ccc(CNC(=O)c2nc3c(s2)CN(C[C@H]2CC[C@H](C(F)(F)F)CC2)[C@H]3C(C)C)cc1 (relative stereo)
IC50 [1]: 100 to 1000 nM
Ki [2]: < 100 nM

CCS(=O)(=O)c1ccc(CNC(=O)c2nc3c(s2)CN(C[C@H]2CN(C(=O)OC(C)(C)C)CCO2)[C@H]3C(C)C)cc1 (relative stereo)
IC50 [1]: 100 to 1000 nM
Ki [2]: < 100 nM
